Source: patent US10913738B2 (BRISTOL-MYERS SQUIBB COMPANY, priority 2017, dated 2021)
Where two headings read alike, the source gives them in different places.

Key:
[1] = system: MLKL phosphorylation in HT29-L23 human colorectal adenocarcinoma cells; assay: MLKL Phosphorylation High-Content Assay; assay type: cell-based; settings: Homo sapiens
Outline: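 IC50 and Ymax obtained by 4-parameter logistic fitting of MLKL phosphorylation, measured as mean circ-ring average intensity ratio from high-content images. Staining used an anti-phospho-S358 MLKL antibody overnight at 4° C., following six-hour cell incubation at 37° C.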

[2] = system: Female C57/Bl6 mice, mTNF + zVAD-fmk induced hypothermia; assay: TNF-Induced Systemic Inflammatory Response Syndrome (SIRS), body temperature; assay type: in vivo; settings: mouse, 3 h after mTNF, relative to 6 mg/kg Nec-1s, read-out: % protection from body temp loss; for inhibition in vivo at 0.4 mg/kg: 0.4 mg/kg oral gavage 2 h before mTNF; for inhibition in vivo at 1 mg/kg: 1.0 mg/kg oral gavage 2 h before mTNF
Procedure: (§1) TNF-Induced Systemic Inflammatory Response Syndrome (SIRS)
(§2) RIPK1 inhibitors were evaluated for efficacy in vivo using a TNF-dependent model of systemic “shock”, also known as systemic inflammatory response syndrome (SIRS) (Duprez et al. 2011, Immunity 35(6):908-918). Intravenous injection of murine TNF induces a systemic inflammatory response characterized by a decrease in body temperature and an increase in circulating cytokines (IL-6, KC) in the serum. The addition of zVAD-fmk strongly sensitizes mice to TNF-induced shock through the inhibition of caspases (Cauwels et al., 2003). The combination of pretreatment with zVAD-fmk prior to injection of mTNF forms the basis of the RIPK1-dependent, TNF-induced, inflammatory response in this model.
(§3) Female C57/Bl6 mice (9 to 11 weeks old) were obtained from Jackson Labs (Bar Harbor, Me.). Mice were housed in BMS' animal facility with ad libitum access to food and water. Mice were and allowed to acclimate for at least 2 weeks and typically weighed at least 21 grams before being used in any studies. Group size was 6 mice per treatment. All experiments were conducted with the approval of BMS' Institutional Animal Care and Use Committee (IACUC)
(§4) Program compounds were dosed by oral gavage 2 h before IV challenge with 20 μg of murine TNF (#CRT192C, Cell Sciences, Canton, Mass.). zVAD-fmk (16.7 mg/kg) was given IV, 15 min before mTNF injection. The RIPK1 kinase inhibitor, necrostatin-1s (Nec-1s) was used as a positive control and was dosed at 6 mg/kg, IV, 30 minutes before mTNF challenge. mTNF was diluted in endotoxin-free PBS and 20 μg/mouse was injected in a volume of 0.1 ml into the retro-orbital sinus. All IV injections were done via the retro-orbital sinus and injection sites were alternated (left and right sides).
Three (3) hours after mTNF injection, mice were assessed for hypothermia and mortality. Rectal body temperature was recorded with an electric thermometer (Acorn Series Model JKT with a Ret-3 probe, Oakton Instruments Vernon Hills Ill. 60061).
(§5) Using these assays, the percent protection of body temperature and percent reduction in IL6 cytokine of the following compounds were determined. See Table B. % Protection is relative to a 6 mg/kg dose of Nec-1s (5-((7-Cl-1H-indol-3-yl)methyl)-3-methylimidazolidine-2,4-dione)).

[3] = system: IL-6; assay: TNF-Induced SIRS, serum cytokines (IL-6, KC) by ELISA; assay type: in vivo; settings: mouse, relative to 6 mg/kg Nec-1s, read-out: % protection from IL6 increase; for inhibition in vivo at 0.4 mg/kg: 0.4 mg/kg oral gavage 2 h before mTNF; for inhibition in vivo at 1 mg/kg: 1.0 mg/kg oral gavage 2 h before mTNF
Procedure: as §1, §2, §3, §4
(§6) Blood samples for PK determination were collected into heparinized microtainer blood tubes (Part #365965, Becton Dickinson, Franklin Lakes N.J.) and mixed well. Dried blood spots (DBS) were prepared by pipetting 10 μl of whole blood, in duplicate, onto bioanalysis cards (#GR2261004, Perkin Elmer, Greenville, S.C.). A serum sample was obtained by collecting blood into a separator tube (#450472, Greiner Bio-One, Austria) and centrifuged (10 min at 10,000 RPM) to separate the serum. All blood samples were obtained from the retro-orbital sinus while under isoflurane anesthesia.
Serum cytokines were evaluated by ELISA assay. IL-6 was measured using OPTeia Kit (Becton Dickinson, Franklin Lakes N.J.) while KC was measured using an R&D Duoset kit (R&D Systems Inc. Minneapolis, Minn.)
as §5

[4] = Exposure in TNF-induced SIRS study (blood samples for PK determination); assay type: in vivo; settings: mouse
Procedure: as §4, §6

[5] = target: T1, His-GST-TVMV-hRIPK1(1-324) (Homo sapiens, UniProt Q13546); assay: RIPK1 HTRF Binding Assay
T1 construct: The coding region of human RIPK1(1-324) flanked by NdeI site at 5′ end; made in house; host or cells: Spodoptera frugiperda (Sf9) insect cells, baculovirus
T1 sequence (Q13546 1-324): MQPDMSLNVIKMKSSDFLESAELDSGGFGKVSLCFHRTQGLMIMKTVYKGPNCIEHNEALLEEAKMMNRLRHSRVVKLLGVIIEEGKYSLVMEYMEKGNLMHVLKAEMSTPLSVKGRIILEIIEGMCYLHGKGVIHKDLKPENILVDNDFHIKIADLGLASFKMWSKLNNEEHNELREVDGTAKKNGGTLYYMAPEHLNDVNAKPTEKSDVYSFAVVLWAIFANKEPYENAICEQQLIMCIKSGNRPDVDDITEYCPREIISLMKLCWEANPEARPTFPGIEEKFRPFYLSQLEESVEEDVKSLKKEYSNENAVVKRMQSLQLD

[6] = x marks IC50 class <20 nM, read-out: pMLKL cell activity <20 nM
[7] = 0.1 mg/kg oral gavage 2 h before mTNF
[8] = x marks IC50 class <20 nM, read-out: RIPK1 HTRF binding <20 nM
[9] = x marks IC50 class 20-200 nM, read-out: pMLKL cell activity 20-200 nM
[10] = x marks IC50 class 20-200 nM, read-out: RIPK1 HTRF binding 20-200 nM
[11] = x marks IC50 class >200 nM, read-out: pMLKL cell activity >200 nM
[12] = x marks IC50 class >200 nM, read-out: RIPK1 HTRF binding >200 nM

COc1ncc(-c2ccn3nc(N)nc3c2)cc1C(=O)NC(C)c1ccccc1OC(F)(F)F (single isomer, unassigned) [Example 38-1, 5-{2-Amino-[1,2,4]triazolo[1,5-a]pyridin-7-yl}-2-methoxy-N-{1-[2-(trifluoromethoxy)phenyl]ethyl}pyridine-3-carboxamide]
IC50 [1, 6]: < 20 nM
inhibition in vivo at 0.1 mg/kg [2, 7]: 80%
inhibition in vivo at 0.1 mg/kg [3, 7]: 93%
Exposure ([4]; 0.1 mg/kg oral gavage): 12 nM
IC50 [5, 8]: < 20 nM

COc1ncc(-c2ccn3nc(N)nc3c2)cc1C(=O)NCc1cccc(OC(F)(F)F)c1 [Example 58, 5-{2-Amino-[1,2,4]triazolo[1,5-a]pyridin-7-yl}-2-methoxy-N-{[3-(trifluoromethoxy)phenyl]methyl}pyridine-3-carboxamide]
IC50 [1, 9]: 20 to 200 nM
inhibition in vivo at 0.4 mg/kg [2]: 113%
inhibition in vivo at 0.4 mg/kg [3]: 78%
Exposure ([4]; 0.4 mg/kg oral gavage): 409 nM
IC50 [5, 8]: < 20 nM

COc1ncc(-c2ccn3nc(N)nc3c2)cc1C(=O)NCc1ccccc1OC(F)(F)F [Example 74, 5-{2-Amino-[1,2,4]triazolo[1,5-a]pyridin-7-yl}-2-methoxy-N-{[2-(trifluoromethoxy)phenyl]methyl}pyridine-3-carboxamide]
IC50 [1, 9]: 20 to 200 nM
inhibition in vivo at 0.4 mg/kg [2]: 115%
inhibition in vivo at 0.4 mg/kg [3]: 87%
Exposure ([4]; 0.4 mg/kg oral gavage): 117 nM
IC50 [5, 8]: < 20 nM

COc1ncc(-c2ccn3nc(N)nc3c2)cc1C(=O)NCCCc1ccccc1 [Example 102, 5-{2-amino-[1,2,4]triazolo[1,5-a]pyridin-7-yl}-2-methoxy-N-(4-phenylpropyl)pyridine-3-carboxamide]
IC50 [1, 9]: 20 to 200 nM
inhibition in vivo at 1 mg/kg [2]: 107%
inhibition in vivo at 1 mg/kg [3]: 82%
Exposure ([4]; 1.0 mg/kg oral gavage): 1287 nM
IC50 [5, 10]: 20 to 200 nM

COc1ncc(-c2ccn3nc(N)nc3c2)cc1C(=O)NCc1cc(F)cc(F)c1OCC1CC1 [Example 131, 5-{2-amino-[1,2,4]triazolo[1,5-a]pyridin-7-yl}-N-{[2-(cyclopropylmethoxy)-3,5-difluorophenyl]methyl}-2-methoxypyridine-3-carboxamide]
IC50 [1, 6]: < 20 nM
inhibition in vivo at 0.4 mg/kg [2]: 15%
inhibition in vivo at 0.4 mg/kg [3]: 8%
Exposure ([4]; 0.4 mg/kg oral gavage): 50 nM
IC50 [5, 8]: < 20 nM

COc1ncc(-c2ccn3nc(N)nc3c2)cc1C(=O)N1CCC[C@@H](Cc2ccc(F)cc2)C1 [Example 136, 7-{5-[(3S)-3-[(4-fluorophenyl)methyl]piperidine-1-carbonyl]-6-methoxypyridin-3-yl}-[1,2,4]triazolo[1,5-a]pyridin-2-amine]
IC50 [1, 6]: < 20 nM
inhibition in vivo at 0.4 mg/kg [2]: 106%
inhibition in vivo at 0.4 mg/kg [3]: 80%
Exposure ([4]; 0.4 mg/kg oral gavage): 364 nM
IC50 [5, 8]: < 20 nM

COc1ncc(-c2ccn3nc(N)nc3c2)cc1C(=O)NCc1cc(OC(F)(F)F)ccc1F [Example 160, 5-{2-amino-[1,2,4]triazolo[1,5-a]pyridin-7-yl}-N-{[2-fluoro-5-(trifluoromethoxy)phenyl]methyl}-2-methoxypyridin-3-carboxamide]
IC50 [1, 9]: 20 to 200 nM
inhibition in vivo at 1 mg/kg [2]: 107%
inhibition in vivo at 1 mg/kg [3]: 60%
Exposure ([4]; 1.0 mg/kg oral gavage): 693 nM
IC50 [5, 8]: < 20 nM

Cc1ncc(-c2ccn3nc(N)nc3c2)cc1C(=O)NC(C)c1cccc(OC(F)(F)F)c1 (stereo not shown) [Example 251, 5-{2-amino-[1,2,4]triazolo[1,5-a]pyridin-7-yl}-2-methyl-N-{1-[3-(trifluoromethoxy)phenyl]ethyl}pyridine-3-carboxamide]
IC50 [1, 9]: 20 to 200 nM
inhibition in vivo at 1 mg/kg [2]: 86%
inhibition in vivo at 1 mg/kg [3]: 97%
Exposure ([4]; 1.0 mg/kg oral gavage): 1208 nM

Cc1ncc(-c2ccn3nc(N)nc3c2)cc1NC(=O)Cc1cc(OC(F)(F)F)ccc1F [Example 420, N-(5-(2-amino-[1,2,4]triazolo[1,5-a]pyridin-7-yl)-2-methylpyridin-3-yl)-2-(2-fluoro-5-(trifluoromethoxy)phenyl)acetamide]
IC50 [1, 9]: 20 to 200 nM
IC50 [5, 8]: < 20 nM

Cc1ncc(-c2ccn3nc(N)nc3c2)cc1C(=O)NCC(C)(O)Cc1ccc(F)cc1 (stereo not shown) [Example 421, 5-(2-amino-[1,2,4]triazolo[1,5-a]pyridin-7-yl)-N-(3-(4-fluorophenyl)-2-hydroxy-2-methylpropyl)-2-methylnicotinamide]
IC50 [1, 11]: > 200 nM
IC50 [5, 10]: 20 to 200 nM

Cc1ncc(-c2ccn3nc(N)nc3c2)cc1C(=O)N1CCCC(C(O)c2ccc(F)cc2)C1 (stereo not shown) [Example 423, (5-(2-amino-[1,2,4]triazolo[1,5-a]pyridin-7-yl)-2-methylpyridin-3-yl)(3-((4-fluorophenyl)(hydroxy)methyl)piperidin-1-yl)methanone]
IC50 [1, 11]: > 200 nM
IC50 [5, 12]: > 200 nM

COc1ncc(-c2ccn3nc(N)nc3c2)cc1C(=O)N1CCCC(Sc2ccccc2)C1 (stereo not shown) [Example 424, (5-(2-amino-[1,2,4]triazolo[1,5-a]pyridin-7-yl)-2-methoxypyridin-3-yl)(3-(phenylthio)piperidin-1-yl)methanone]
IC50 [1, 9]: 20 to 200 nM
IC50 [5, 10]: 20 to 200 nM

COc1ncc(-c2ccn3nc(N)nc3c2)cc1C(=O)N1CCOC(c2ccccc2)C1 (stereo not shown) [Example 425]
IC50 [1, 11]: > 200 nM
IC50 [5, 12]: > 200 nM

COc1ncc(-c2ccn3nc(N)nc3c2)cc1C(=O)NC1CCCC(NC(=O)OC(C)(C)C)C1 (stereo not shown) [Example 426, tert-butyl (3-(5-(2-amino-[1,2,4]triazolo[1,5-a]pyridin-7-yl)-2-methoxynicotinamido)cyclohexyl)carbamate]
IC50 [1, 11]: > 200 nM
IC50 [5, 12]: > 200 nM

COc1ncc(-c2ccn3nc(N)nc3c2)cc1C(=O)N1CCCC(C(=O)Cc2ccccc2)C1 (stereo not shown) [Example 427, 1-(1-(5-(2-amino-[1,2,4]triazolo[1,5-a]pyridin-7-yl)-2-methoxynicotinoyl)piperidin-3-yl)-2-phenylethan-1-one]
IC50 [1, 9]: 20 to 200 nM
IC50 [5, 10]: 20 to 200 nM

COc1ncc(-c2ccn3nc(N)nc3c2)cc1C(=O)N1CCOC(Cc2ccccc2)C1 (stereo not shown) [Example 428, (5-(2-amino-[1,2,4]triazolo[1,5-a]pyridin-7-yl)-2-methoxypyridin-3-yl)(2-benzylmorpholino)methanone]
IC50 [1, 11]: > 200 nM
IC50 [5, 10]: 20 to 200 nM
